Source: US5880145A, “Class of benzoporphyrin derivative photoactive compounds” (The University of British Columbia, priority 1997, dated 1999)
Read-outs that look alike come from different tables or passages of the source.

What was measured:
[1] = tested on: Murine leukemia cells (L1210); test: Photosensitization of cells in vitro (broad spectrum light 9 j/cm^2; MTT cell viability); assay type: cell-based; settings: for IC50: Mus musculus, L1210, light or radiation study, 20 h, 1 hour incubation, light 9 j/cm^2, viability 20 hours later, read-out: LD50 (dose causing 50% cell kill)
Procedure: Murine leukemia cells (L1210) were incubated in suitable buffer with and without serum in various amounts of the drug B3 for 1 hour. After removal of the drug, the cells were exposed to broad spectrum light at 9 j/cm^2. Cell viability was determined 20 hours later by the MTT colorimetric assay. Results are presented in FIGS. 2A and 2B as % cell kill for cells exposed to light only.

L1210 cells [2] = test: Release/retention of B3 by cells in vitro; assay type: cell-based, Murine; settings: after 1 hour incubation at 3 μg/ml; drug-free medium with 10% serum
Procedure: Release/retention of B3 by cells in vitro: L1210 cells were incubated for 1 hour with B3 at 3 μg/ml in the presence of 10% serum, then washed and placed in drug-free medium containing 10% serum. At various times duplicate aliquots were evaluated for cell content of B3 as described above.

[3] = tested on: M1 (rhabdomyosarcoma) tumor-bearing mice; test: Selectivity in vivo: biodistribution (tumor:tissue ratios)
Procedure: Mice (normal, healthy and M1-tumor-bearing) were injected intravenously at 4 mg/kg with B3 formulated in aqueous solution containing DMSO. At various times post B3 administration, the animals were sacrificed and B3 content in various tissues was determined in tissue extracts by fluorescence as described above. Biodistribution data of B3 (tumor:tissue ratios) obtained in M1 (rhabdomyosarcoma) tumor-bearing mice were also evaluated at various times. Within the first hour post intravenous administration of 4 mg/kg B3, tumor:tissue ratios for the muscle and skin were 1.5-2.0 and 3.1-3.9, respectively. Lymph nodes gave ratios of 0.7. […] Since this preferential accumulation was observed shortly after B3 administration, this photosensitizer can be activated with light shortly after its injection, which is convenient in clinical use.

L1210 cells [4] = test: Uptake of B3 by cells in vitro; assay type: cell-based, Murine; settings: 3 μg/ml, 10% serum
Procedure: Uptake of B3 by cells in vitro: L1210 cells (5×10^6 /vial) were incubated in the presence of 10% serum with B3 at 3 μg/ml for times up to 100 minutes. At various times during incubation, duplicate vials were pulled out and the cells, following washing, were lysed and the amount of B3 in the extract determined by fluorescence in the presence of 1% Triton X-100.

[5] = Tissue distribution and clearance in vivo; settings: mice, intravenous 4 mg/kg
Procedure: Mice (normal, healthy and M1-tumor-bearing) were injected intravenously at 4 mg/kg with B3 formulated in aqueous solution containing DMSO. At various times post B3 administration, the animals were sacrificed and B3 content in various tissues was determined in tissue extracts by fluorescence as described above.

[6] = within first hour post intravenous 4 mg/kg

C=Cc1c(C)c2cc3nc(cc4[nH]c(cc5nc(cc1[nH]2)[C@@]1(C)C5=CC=C(C(=O)O)[C@H]1C(=O)OC)c(C)c4CCC(=O)OC)C(CCC(=O)OC)=C3C (relative stereo) [Example B3]
IC50 ([1]; in the absence of 10% serum): 0.007 µg/mL | IC50 ([1]; in the presence of 10% serum): 0.035 µg/mL | photosensitization of cells (in words) ([1]; with and without serum): very potent photosensitizer of cells and maintains this property in the presence of serum | time after which release from cells is rapid and almost complete (L1210 cells [2]): ~30 min | accumulation in tumor and other rapidly proliferating tissues versus normal tissues (in words) ([3]; shortly after intravenous 4 mg/kg): preferential accumulation of B3 in tumor and other rapidly proliferating tissues (lymph nodes) in contrast to normal, nonproliferating tissues | tumor:tissue ratio, lymph nodes [3, 6]: 0.7 | tumor:tissue ratio, muscle [3, 6]: 1.5-2.0 | tumor:tissue ratio, skin [3, 6]: 3.1-3.9 | time to reach maximum concentrations in cells (uptake) (L1210 cells [4]): ≤ 20 min | cellular pharmacokinetics in vitro (in words) (L1210 cells [4]; uptake and release, L1210 cells): very rapid pharmacokinetics in vitro | pharmacokinetics in vivo (in words) [5]: very rapid pharmacokinetics in vivo | time after which drug was cleared from tissues tested ([5]; aqueous solution containing DMSO): about 5 minutes
